The source made the active and inactive calls. Cut-off read from the data, not from the text of the source, for most assays here: actives have a measured Kd and inactives only a lower limit.
Columns and labels:
[1] = molecular target: Casein kinase I isoform delta (Homo sapiens, UniProt P48730)
[2] = molecular target: T1, Ephrin type-B receptor 2 (Homo sapiens, UniProt P29323)
T1 sequence (P29323 whole entry): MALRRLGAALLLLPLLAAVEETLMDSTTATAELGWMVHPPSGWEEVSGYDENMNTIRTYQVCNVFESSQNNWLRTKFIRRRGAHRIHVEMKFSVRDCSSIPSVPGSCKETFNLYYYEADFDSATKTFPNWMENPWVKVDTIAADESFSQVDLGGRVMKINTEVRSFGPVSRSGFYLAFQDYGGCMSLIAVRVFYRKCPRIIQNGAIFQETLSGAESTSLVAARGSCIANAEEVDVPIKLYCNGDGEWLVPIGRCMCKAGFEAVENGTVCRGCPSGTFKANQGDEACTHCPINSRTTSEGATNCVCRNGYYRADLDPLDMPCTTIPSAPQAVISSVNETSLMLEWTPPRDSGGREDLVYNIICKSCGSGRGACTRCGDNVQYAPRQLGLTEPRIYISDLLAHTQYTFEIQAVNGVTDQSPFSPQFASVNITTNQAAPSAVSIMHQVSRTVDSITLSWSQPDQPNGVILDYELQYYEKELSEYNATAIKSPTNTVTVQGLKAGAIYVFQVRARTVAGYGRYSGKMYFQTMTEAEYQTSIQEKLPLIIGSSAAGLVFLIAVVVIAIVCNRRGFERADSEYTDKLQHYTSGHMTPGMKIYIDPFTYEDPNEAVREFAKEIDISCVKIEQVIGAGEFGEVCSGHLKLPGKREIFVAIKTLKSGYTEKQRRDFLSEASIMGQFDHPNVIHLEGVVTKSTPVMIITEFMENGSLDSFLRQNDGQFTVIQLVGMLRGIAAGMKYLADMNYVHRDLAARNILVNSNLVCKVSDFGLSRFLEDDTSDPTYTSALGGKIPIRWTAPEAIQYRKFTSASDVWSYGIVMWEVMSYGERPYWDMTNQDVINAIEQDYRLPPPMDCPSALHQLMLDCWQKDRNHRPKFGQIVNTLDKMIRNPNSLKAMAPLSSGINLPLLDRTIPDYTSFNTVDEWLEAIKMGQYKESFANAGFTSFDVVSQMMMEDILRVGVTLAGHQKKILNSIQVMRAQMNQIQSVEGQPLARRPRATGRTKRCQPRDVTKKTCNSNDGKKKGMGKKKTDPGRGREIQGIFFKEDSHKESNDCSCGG

[3] = molecular target: Glycogen synthase kinase-3 beta (Homo sapiens, UniProt P49841)
Sequence of Glycogen synthase kinase-3 beta (P49841 whole entry): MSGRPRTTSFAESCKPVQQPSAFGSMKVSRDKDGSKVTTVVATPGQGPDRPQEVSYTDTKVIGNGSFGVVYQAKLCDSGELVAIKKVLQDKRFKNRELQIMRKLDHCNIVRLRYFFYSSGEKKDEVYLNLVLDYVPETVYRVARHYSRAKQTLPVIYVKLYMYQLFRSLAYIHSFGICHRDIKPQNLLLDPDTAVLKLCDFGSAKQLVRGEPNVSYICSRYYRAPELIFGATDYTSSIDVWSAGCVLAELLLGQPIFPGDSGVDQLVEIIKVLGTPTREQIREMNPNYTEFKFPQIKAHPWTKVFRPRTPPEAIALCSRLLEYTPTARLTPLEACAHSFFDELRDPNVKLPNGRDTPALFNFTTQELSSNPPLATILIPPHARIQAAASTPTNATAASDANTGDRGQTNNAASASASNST

[4] = molecular target: Insulin receptor (Homo sapiens, UniProt P06213)
Sequence of Insulin receptor (P06213 28-758 limits assumed): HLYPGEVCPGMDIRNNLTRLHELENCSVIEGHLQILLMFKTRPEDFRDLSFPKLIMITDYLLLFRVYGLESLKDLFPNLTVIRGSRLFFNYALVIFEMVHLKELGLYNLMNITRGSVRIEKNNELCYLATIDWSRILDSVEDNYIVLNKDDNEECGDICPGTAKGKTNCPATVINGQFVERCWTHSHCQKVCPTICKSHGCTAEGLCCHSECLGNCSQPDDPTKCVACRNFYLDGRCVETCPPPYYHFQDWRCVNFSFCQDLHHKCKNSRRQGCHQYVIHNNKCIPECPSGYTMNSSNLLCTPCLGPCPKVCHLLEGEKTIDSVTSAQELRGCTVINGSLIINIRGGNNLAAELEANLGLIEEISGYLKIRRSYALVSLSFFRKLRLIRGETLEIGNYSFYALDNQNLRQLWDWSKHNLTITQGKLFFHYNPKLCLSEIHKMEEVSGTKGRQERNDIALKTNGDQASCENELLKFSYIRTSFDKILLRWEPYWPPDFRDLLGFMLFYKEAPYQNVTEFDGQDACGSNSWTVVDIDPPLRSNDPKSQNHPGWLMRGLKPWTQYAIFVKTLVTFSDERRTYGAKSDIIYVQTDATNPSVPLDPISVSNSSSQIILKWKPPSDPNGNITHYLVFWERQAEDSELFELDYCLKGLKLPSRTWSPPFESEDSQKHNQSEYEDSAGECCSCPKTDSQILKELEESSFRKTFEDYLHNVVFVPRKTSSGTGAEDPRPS
Sequence of Insulin receptor (P06213 763-1382 limits assumed): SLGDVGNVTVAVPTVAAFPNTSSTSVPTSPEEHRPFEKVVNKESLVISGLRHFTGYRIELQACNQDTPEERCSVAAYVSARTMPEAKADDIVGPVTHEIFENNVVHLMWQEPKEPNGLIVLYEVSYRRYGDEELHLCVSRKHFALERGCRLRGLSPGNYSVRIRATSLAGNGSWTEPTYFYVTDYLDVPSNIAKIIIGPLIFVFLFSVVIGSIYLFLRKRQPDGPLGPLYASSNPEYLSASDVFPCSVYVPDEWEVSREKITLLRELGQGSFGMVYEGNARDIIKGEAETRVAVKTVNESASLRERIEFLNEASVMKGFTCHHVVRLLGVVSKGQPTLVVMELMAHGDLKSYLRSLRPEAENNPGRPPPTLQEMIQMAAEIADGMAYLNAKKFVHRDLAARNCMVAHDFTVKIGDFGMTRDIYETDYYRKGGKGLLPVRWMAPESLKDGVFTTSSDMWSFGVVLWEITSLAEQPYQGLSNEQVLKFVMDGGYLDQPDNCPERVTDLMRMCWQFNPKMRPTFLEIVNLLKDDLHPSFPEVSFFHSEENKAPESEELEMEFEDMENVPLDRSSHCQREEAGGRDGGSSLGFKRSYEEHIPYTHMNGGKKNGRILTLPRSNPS

[5] = molecular target: Dual specificity mitogen-activated protein kinase kinase 1 (Homo sapiens, UniProt Q02750)
Sequence of Dual specificity mitogen-activated protein kinase kinase 1 (Q02750 whole entry): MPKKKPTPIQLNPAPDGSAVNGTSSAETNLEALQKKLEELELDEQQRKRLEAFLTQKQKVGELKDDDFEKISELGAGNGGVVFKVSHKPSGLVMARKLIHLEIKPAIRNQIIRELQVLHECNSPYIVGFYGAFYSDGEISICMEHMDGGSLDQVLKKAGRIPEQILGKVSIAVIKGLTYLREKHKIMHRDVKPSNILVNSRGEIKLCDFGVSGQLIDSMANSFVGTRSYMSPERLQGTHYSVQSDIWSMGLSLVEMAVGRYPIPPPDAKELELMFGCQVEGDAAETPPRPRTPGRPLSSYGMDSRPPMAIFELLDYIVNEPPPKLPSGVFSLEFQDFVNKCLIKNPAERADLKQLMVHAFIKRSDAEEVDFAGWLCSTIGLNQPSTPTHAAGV

[6] = molecular target: T2, Serine/threonine-protein kinase PLK4 (Homo sapiens, UniProt O00444)
T2 sequence (O00444 whole entry): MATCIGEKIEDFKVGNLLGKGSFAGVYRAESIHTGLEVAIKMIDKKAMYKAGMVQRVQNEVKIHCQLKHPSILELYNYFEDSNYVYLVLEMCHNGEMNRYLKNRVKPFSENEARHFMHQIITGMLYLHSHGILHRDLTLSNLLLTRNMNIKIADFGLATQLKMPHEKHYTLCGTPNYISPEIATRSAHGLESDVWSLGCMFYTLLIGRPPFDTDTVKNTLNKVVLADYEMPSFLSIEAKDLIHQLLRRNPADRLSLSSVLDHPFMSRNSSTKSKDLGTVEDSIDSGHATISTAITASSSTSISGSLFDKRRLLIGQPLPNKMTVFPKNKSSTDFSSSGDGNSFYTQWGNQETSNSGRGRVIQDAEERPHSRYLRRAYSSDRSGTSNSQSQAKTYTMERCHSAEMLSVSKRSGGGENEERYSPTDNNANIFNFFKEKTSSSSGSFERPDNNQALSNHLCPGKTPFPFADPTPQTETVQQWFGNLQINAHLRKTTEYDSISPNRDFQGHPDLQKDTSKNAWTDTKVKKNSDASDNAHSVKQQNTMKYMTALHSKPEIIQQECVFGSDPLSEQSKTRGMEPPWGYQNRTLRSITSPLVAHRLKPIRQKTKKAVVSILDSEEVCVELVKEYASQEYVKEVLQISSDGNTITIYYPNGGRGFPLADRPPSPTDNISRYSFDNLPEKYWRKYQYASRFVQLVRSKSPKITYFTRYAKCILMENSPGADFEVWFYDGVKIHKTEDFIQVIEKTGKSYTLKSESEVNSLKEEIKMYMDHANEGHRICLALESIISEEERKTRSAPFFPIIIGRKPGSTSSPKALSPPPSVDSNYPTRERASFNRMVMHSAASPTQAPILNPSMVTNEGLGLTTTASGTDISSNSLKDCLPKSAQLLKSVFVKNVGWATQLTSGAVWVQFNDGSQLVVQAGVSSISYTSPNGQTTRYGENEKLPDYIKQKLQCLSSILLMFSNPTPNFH

[7] = molecular target: cAMP-dependent protein kinase catalytic subunit beta (Homo sapiens, UniProt P22694)
[8] = molecular target: T3, ADP/ATP translocase 2 (Homo sapiens, UniProt P05141)
T3 sequence (P05141 whole entry): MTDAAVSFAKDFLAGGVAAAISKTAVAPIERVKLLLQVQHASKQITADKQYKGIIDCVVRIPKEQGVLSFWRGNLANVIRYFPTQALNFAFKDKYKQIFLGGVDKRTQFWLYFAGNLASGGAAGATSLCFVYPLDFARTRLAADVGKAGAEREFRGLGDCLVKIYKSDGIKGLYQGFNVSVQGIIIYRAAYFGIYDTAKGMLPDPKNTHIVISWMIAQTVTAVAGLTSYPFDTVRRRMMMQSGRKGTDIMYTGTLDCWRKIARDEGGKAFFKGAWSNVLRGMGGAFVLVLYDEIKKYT

[9] = molecular target: U5 small nuclear ribonucleoprotein 200 kDa helicase (Homo sapiens, UniProt O75643)
Sequence of U5 small nuclear ribonucleoprotein 200 kDa helicase (O75643 whole entry): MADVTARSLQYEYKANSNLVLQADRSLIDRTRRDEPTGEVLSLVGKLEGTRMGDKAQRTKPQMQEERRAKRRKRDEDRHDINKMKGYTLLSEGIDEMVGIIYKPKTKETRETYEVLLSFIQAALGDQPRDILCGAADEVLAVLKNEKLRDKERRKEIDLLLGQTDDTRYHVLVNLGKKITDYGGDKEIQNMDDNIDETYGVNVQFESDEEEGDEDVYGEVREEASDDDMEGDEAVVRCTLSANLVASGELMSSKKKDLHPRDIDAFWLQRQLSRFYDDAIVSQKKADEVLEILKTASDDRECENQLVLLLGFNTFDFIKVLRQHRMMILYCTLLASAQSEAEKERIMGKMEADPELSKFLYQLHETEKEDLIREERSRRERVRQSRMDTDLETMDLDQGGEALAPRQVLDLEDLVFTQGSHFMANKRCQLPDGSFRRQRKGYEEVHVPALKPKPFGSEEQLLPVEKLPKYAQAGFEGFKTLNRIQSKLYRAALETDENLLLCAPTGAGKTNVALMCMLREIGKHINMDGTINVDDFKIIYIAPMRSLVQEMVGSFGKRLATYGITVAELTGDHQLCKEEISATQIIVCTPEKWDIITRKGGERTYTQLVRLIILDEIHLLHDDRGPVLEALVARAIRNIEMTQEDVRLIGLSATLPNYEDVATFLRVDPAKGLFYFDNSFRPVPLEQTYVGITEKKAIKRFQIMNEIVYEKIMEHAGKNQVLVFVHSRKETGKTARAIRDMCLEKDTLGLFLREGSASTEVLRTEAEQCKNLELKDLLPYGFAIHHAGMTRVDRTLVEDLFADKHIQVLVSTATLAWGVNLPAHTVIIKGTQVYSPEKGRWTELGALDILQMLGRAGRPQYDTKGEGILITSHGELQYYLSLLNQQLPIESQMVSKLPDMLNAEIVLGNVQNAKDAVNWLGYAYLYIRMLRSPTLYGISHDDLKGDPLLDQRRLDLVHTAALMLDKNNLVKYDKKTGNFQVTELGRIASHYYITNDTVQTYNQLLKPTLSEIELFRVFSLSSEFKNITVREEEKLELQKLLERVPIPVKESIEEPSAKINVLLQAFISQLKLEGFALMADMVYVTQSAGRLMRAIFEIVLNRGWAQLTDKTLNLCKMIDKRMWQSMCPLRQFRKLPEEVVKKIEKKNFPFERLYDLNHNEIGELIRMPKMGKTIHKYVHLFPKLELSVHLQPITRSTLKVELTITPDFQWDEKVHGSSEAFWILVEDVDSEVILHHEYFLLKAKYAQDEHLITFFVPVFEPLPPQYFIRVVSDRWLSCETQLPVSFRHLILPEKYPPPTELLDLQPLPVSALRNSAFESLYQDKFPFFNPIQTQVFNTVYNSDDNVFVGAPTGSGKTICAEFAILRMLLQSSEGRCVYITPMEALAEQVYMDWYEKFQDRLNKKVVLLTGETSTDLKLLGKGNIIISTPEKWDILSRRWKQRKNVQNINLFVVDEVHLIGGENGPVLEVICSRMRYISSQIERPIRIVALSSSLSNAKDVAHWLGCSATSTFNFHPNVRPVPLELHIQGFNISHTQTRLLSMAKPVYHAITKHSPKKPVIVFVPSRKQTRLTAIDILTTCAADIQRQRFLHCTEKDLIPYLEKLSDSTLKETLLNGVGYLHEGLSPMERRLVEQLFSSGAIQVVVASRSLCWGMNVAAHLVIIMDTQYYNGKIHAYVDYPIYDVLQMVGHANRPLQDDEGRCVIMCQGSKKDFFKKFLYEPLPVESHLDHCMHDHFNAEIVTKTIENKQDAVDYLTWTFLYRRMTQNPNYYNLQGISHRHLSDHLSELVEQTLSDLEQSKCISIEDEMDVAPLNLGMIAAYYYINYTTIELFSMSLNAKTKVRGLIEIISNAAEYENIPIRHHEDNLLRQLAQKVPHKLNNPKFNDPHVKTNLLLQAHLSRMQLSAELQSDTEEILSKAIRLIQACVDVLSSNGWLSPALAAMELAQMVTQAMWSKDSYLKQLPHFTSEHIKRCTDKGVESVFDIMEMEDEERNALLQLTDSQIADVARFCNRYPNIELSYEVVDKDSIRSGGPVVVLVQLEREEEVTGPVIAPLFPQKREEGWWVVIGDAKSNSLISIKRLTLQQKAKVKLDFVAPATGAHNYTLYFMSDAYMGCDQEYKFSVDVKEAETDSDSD
Note: in the data inactive means no Kd found up to 30 µM.

Sequence of Casein kinase I isoform delta (P48730 whole entry, canonical isoform): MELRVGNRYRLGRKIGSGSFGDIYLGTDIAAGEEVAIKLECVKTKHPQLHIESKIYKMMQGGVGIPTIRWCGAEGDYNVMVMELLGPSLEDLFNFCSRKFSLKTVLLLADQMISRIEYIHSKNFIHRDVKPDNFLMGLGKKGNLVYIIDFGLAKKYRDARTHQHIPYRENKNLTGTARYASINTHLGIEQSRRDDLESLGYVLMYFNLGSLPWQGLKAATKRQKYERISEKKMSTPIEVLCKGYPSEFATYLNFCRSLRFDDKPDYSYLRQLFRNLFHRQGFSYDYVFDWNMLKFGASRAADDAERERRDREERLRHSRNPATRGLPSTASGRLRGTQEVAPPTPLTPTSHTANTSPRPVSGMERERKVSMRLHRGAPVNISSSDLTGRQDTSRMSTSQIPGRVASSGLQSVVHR

| Compound | Kd [1] | Kd [2] | Kd [3] | Kd [4] | Kd [5] | Kd [6] | Kd [7] | Kd [8] | Kd [9] |
| --- | --- | --- | --- | --- | --- | --- | --- | --- | --- |
| Cc1nc(N)sc1-c1ccnc(Nc2ccc(N3CCOCC3)cc2)n1 [CYC-116] |  |  |  |  | > 30 µM (inactive) |  |  | > 30 µM (inactive) | > 30 µM (inactive) |
| CCc1cnn2c(NCc3ccc[n+]([O-])c3)cc(N3CCCC[C@H]3CCO)nc12 [DINACICLIB] | > 30 µM (inactive) | > 30 µM (inactive) | 1.43 µM (active) | > 30 µM (inactive) |  | > 30 µM (inactive) | > 30 µM (inactive) | > 30 µM (inactive) | > 30 µM (inactive) |
| Cc1cc(Nc2cc(N3CCN(C)CC3)nc(/C=C/c3ccccc3)n2)n[nH]1 [ENMD-2076] |  | > 30 µM (inactive) |  |  | > 30 µM (inactive) |  | > 30 µM (inactive) | > 30 µM (inactive) | > 30 µM (inactive) |
| CCn1c(-c2nonc2N)nc2c(C#CC(C)(C)O)ncc(OC[C@H]3CCCNC3)c21 [GSK-690693] |  |  |  |  |  |  |  | > 30 µM (inactive) | > 30 µM (inactive) |
| COC(=O)[C@@]1(O)C[C@H]2O[C@]1(C)n1c3ccccc3c3c4c(c5c6ccccc6n2c5c31)C(=O)NC4 [K-252A] | > 30 µM (inactive) | > 30 µM (inactive) | > 30 µM (inactive) | > 30 µM (inactive) |  | 0.073 µM (active) | > 30 µM (inactive) | > 30 µM (inactive) | > 30 µM (inactive) |
| Cn1cc(-c2ccc(F)c(C(F)(F)F)c2)nc1C1CCN(c2ncnc3[nH]ncc23)CC1 [LY-2584702] | > 30 µM (inactive) | > 30 µM (inactive) |  | > 30 µM (inactive) | > 30 µM (inactive) | > 30 µM (inactive) | > 30 µM (inactive) | > 30 µM (inactive) | > 30 µM (inactive) |
| Cc1cn(-c2cc(NC(=O)c3ccc(C)c(Nc4nccc(-c5cccnc5)n4)c3)cc(C(F)(F)F)c2)cn1 [NILOTINIB] |  |  |  |  |  |  |  | > 30 µM (inactive) | > 30 µM (inactive) |
| OCCn1cc(-c2cnc3nnn(Cc4ccc5ncccc5c4)c3n2)cn1 [PF-04217903] | > 30 µM (inactive) | > 30 µM (inactive) |  | > 30 µM (inactive) |  | > 30 µM (inactive) | > 30 µM (inactive) | > 30 µM (inactive) | > 30 µM (inactive) |
| C[C@@H](c1ccc2nccn2c1)n1nnc2ncc(-c3cnn(C)c3)nc21 [SAVOLITINIB] | > 30 µM (inactive) | > 30 µM (inactive) | > 30 µM (inactive) | > 30 µM (inactive) | > 30 µM (inactive) |  | > 30 µM (inactive) | > 30 µM (inactive) |  |
| O=C(Nc1cccc(Cl)c1)Nc1ncc(CCNc2ncnc3ccsc23)s1 [SNS-314] |  | > 30 µM (inactive) |  |  |  |  | > 30 µM (inactive) | > 30 µM (inactive) | > 30 µM (inactive) |
| Nc1nc(N)c2nc(-c3cccc(O)c3)c(-c3cccc(O)c3)nc2n1 [TG100-115] | > 30 µM (inactive) |  |  |  |  |  |  | > 30 µM (inactive) | > 30 µM (inactive) |

Further lines, results first:

| Kd [1] | Kd [2] | Kd [3] | Kd [4] | Kd [5] | Kd [6] | Kd [7] | Kd [8] | Kd [9] | Compound |
| --- | --- | --- | --- | --- | --- | --- | --- | --- | --- |
| > 30 µM (inactive) | > 30 µM (inactive) | > 30 µM (inactive) | > 30 µM (inactive) | > 30 µM (inactive) | > 30 µM (inactive) | 0.211 µM (active) | > 30 µM (inactive) |  | Cn1ncc(Cl)c1-c1cc(C(=O)N[C@H](CN)Cc2cccc(F)c2)sc1Cl [AFURESERTIB] |
| > 30 µM (inactive) | > 30 µM (inactive) | > 30 µM (inactive) | > 30 µM (inactive) |  | > 30 µM (inactive) | > 30 µM (inactive) | > 30 µM (inactive) | > 30 µM (inactive) | CNS(=O)(=O)Nc1nccc(Cc2c(C)c3ccc(Oc4ncccn4)cc3oc2=O)c1F [AVUTOMETINIB] |
| > 30 µM (inactive) | > 30 µM (inactive) |  | > 30 µM (inactive) | > 30 µM (inactive) | > 30 µM (inactive) | > 30 µM (inactive) | > 30 µM (inactive) | > 30 µM (inactive) | CNC(=O)c1ccc(-c2cnc3ncc(Cc4ccc5ncccc5c4)n3n2)cc1F [CAPMATINIB] |
|  |  |  |  |  |  |  | > 30 µM (inactive) | > 30 µM (inactive) | CN1CCN(c2ccc3nc(-c4c(N)c5c(F)cccc5[nH]c4=O)[nH]c3c2)CC1 [DOVITINIB] |
| > 30 µM (inactive) | > 30 µM (inactive) | > 30 µM (inactive) | > 30 µM (inactive) | > 30 µM (inactive) | > 30 µM (inactive) | > 30 µM (inactive) | > 30 µM (inactive) |  | CC[C@H](Nc1ncnc2[nH]cnc12)c1nc2cccc(F)c2c(=O)n1-c1ccccc1 [IDELALISIB] |
|  | > 30 µM (inactive) | > 30 µM (inactive) | > 30 µM (inactive) |  |  | > 30 µM (inactive) | > 30 µM (inactive) | > 30 µM (inactive) | COc1cc2nccc(Oc3ccc(NC(=O)NC4CC4)c(Cl)c3)c2cc1C(N)=O [LENVATINIB] |
| > 30 µM (inactive) | > 30 µM (inactive) | > 30 µM (inactive) | > 30 µM (inactive) | > 30 µM (inactive) | > 30 µM (inactive) | > 30 µM (inactive) | > 30 µM (inactive) |  | Cc1c(F)cc(C(=O)NC2CC2)cc1-c1ccc(C(=O)NCC(C)(C)C)cn1 [LOSMAPIMOD] |
| > 30 µM (inactive) | > 30 µM (inactive) |  | > 30 µM (inactive) | > 30 µM (inactive) | > 30 µM (inactive) | > 30 µM (inactive) | > 30 µM (inactive) | > 30 µM (inactive) | O=c1sn(-c2cccc3ccccc23)c(=O)n1Cc1ccccc1 [TIDEGLUSIB] |
| > 30 µM (inactive) | > 30 µM (inactive) | > 30 µM (inactive) | > 30 µM (inactive) |  | > 30 µM (inactive) | > 30 µM (inactive) | > 30 µM (inactive) | > 30 µM (inactive) | CC(=O)Nc1cccc(-n2c(=O)n(C3CC3)c(=O)c3c(Nc4ccc(I)cc4F)n(C)c(=O)c(C)c32)c1 [TRAMETINIB] |
| > 30 µM (inactive) | > 30 µM (inactive) | > 30 µM (inactive) | > 30 µM (inactive) |  | > 30 µM (inactive) | > 30 µM (inactive) | > 30 µM (inactive) | > 30 µM (inactive) | CC(C)Nc1cc(-c2c[nH]c(C(=O)N[C@H](CO)c3cccc(Cl)c3)c2)c(Cl)cn1 [ULIXERTINIB] |
